Test [1] deals with 468 kinases. It counts as binding. The conditions noted are these: concentration of 100 nM.
Test [2] has as its system 468 kinases. The conditions noted are these: concentration of 100 nM; cited from earlier work.

Structures are written as SMILES. Like-named read-outs stand apart in the source and are kept apart here.

With `C1=C/COCc2cc(ccc2OCCN2CCCC2)Nc2nccc(n2)-c2cccc(c2)COC/1` [Pacritinib], the “number of wild-type kinases inhibited (percent control <35%)” value in the test on 468 kinases [1] amounted to 55.

For `Cc1cnc(Nc2ccc(OCCN3CCCC3)cc2)nc1Nc1cccc(S(=O)(=O)NC(C)(C)C)c1` [Fedratinib], the “number of wild-type kinases inhibited (percent control <35%)” value in the test with 468 kinases [2] is 34.

The record behind these values is article PMC12504684 (Communications Chemistry, 2025).
